From patent publication US20220016092A1, “METHODS FOR TREATING SYMPTOMS AND DISORDERS ASSOCIATED WITH LYSOSOMAL STORAGE DISEASES” (GENZYME CORPORATION, priority 2019, published 2022)
Like-named read-outs stand apart in the source and are kept apart here.

Assays:
Format in all cases: in vivo, human
[1] = tested on: GL-3, lyso-GL-3, GL-1 and GM3; experiment: Clinical study in Fabry disease patients: plasma and urine glycosphingolipids; conditions: 15 mg/day oral
Experimental: A three-year open-label investigation of Compound 2 in young classic Fabry disease patients was conducted in order to evaluate the long-term safety, pharmacodynamics and exploratory efficacy of Compound 2 in adult male Fabry patients. Eleven subjects enrolled in the study, and seven subjects completed all aspects of the study. All subjects were males diagnosed with classic Fabry disease confirmed by genotype and residual alpha-galactosidase activity below detection levels (9 of the 11 had nonsense mutation in the GLA gene). All subjects had lyso-GL3 levels in plasma of at least 65 ng/mL and had no prior Fabry disease-specific treatment. The median age of subject was 24 years (range 19-37).
Each sample was scored independently by 3 pathologists for the presence of GL-3 inclusions on a four-point scale, and rated as 0 (no/trace), 1 (mild), 2 (moderate), or 3 (severe) according to Eng et al., N. Engl. J. Med. 345:9-16 (2001). A single score per patient per time point was derived by taking the score rated by the majority of the three pathologists. If a majority score could not be derived, then the median score was used (resulting in some fractional scores). […] Pain scores and abdominal symptoms were analyzed at baseline and weeks 12, 26, 52, 104 and 156 using the SF-36 scoring protocol. […]

[2] = tested on: adult patients with Gaucher disease Type 3; experiment: Clinical study in GD-3 patients: trail making test (TMT); conditions: 15 mg/day + imiglucerase
Excerpt: The trail making test (TMT) was used to evaluate cognitive function in the patients. The TMT is one of the most widely used neuropsychological tests and is included in most test batteries. The TMT is a diagnostic tool to assess general intelligence and cognitive dysfunctions (Tombaugh et al. [2004]; Cavaco et al. [2013]). In part A of the TMT, subjects are asked to connect a cluster of numbers in ascending order. This task is a combination of visual search and general visual and motor processing speed. Part B presents a sequence which alternates between numbers and letters. Subjects must actively switch between both categories when connecting them in ascending, but alternating order.
TMT-A evaluates mainly perceptual and psychomotor speed. TMT-B assesses more specifically mental flexibility and shifting abilities. TMT B minus TMT A score is used to remove the variance attributable to the graphomotor and visual scanning components of TMT A. This derived score reflects the unique task requirements of TMT B.

[3] = Clinical study in GD-3 patients: Compound 2 concentrations in plasma and CSF; conditions: 15 mg/day + imiglucerase; for AUC(0-t): read-out: AUC0-24 (mean ± SD); for Cmax: read-out: Cmax (mean ± SD)
Excerpt: Patients 18 years of age or older with a clinical diagnosis of GD3 and documented deficiency of acid beta-glucosidase activity having received treatment with ERT for at least 3 years and with imiglucerase (Cerezyme) at a stable monthly dose for at least 6 months prior to enrollment were included in the study. Patients must have reached the following GD therapeutic goals: hemoglobin level of ≥11.0 g/dL for females and ≥12.0 g/dL for males; platelet count ≥100 000/mm3; spleen volume <10 multiples of normal (MN), or total splenectomy (provided the splenectomy occurred >3 years prior to randomization); liver volume <1.5 MN; and no bone crisis and free of symptomatic bone disease such as bone pain attributable to osteonecrosis and/or pathological fractures within the last year. Patients must have GD3 featuring oculomotor apraxia (supranuclear gaze palsy) characterized by a horizontal saccade abnormality.
During the study patients were evaluated for safety and tolerability, CSF and plasma biomarkers (glucosylceramide, GL-1; glucosylsphingosine, lyso-GL1), pharmacokinetics, markers for systemic disease (spleen and liver volume measured by magnetic resonance imaging (MRI), platelet count, hemoglobin levels), indicia of interstitial lung disease (high resolution pulmonary computed tomography (CT)), and horizontal saccadic eye movement.
A second interim analysis was performed when the first 6 patients had reached 52-weeks of treatment, as described above in section (A). This analysis included Patients 1-5 as described in section (A), as well as new Patient 6. All six patients had L444P (1448T/C) homozygous Gaucher phenotype.

[4] = tested on: adult patients with Gaucher disease Type 3; experiment: Clinical study in GD-3 patients: Scale for Assessment and Rating of Ataxia (SARA); conditions: 15 mg/day + imiglucerase
Experimental: The degree of ataxia at baseline and throughout the study was evaluated by the Scale for Assessment and Rating of Ataxia (SARA; Schmitz-Hübsch et al. [2006]), which assesses eight distinct attributes of cerebellar ataxia on a scale of 0-40. The eight attributes are gait, stance, sitting, speech disturbance, finger chase, nose-finger test, fast alternate hand movement, and heel-shin slide. SARA ataxia scoring results for all six patients is presented in the chart below: […]

[5] = human, plasma, oral, plasma, Day 1 (N = 5)
[6] = human, plasma, oral, plasma, Day 1 (N = 6)

## CC(C)(NC(=O)O[C@@H]1CN2CCC1CC2)c1csc(-c2ccc(F)cc2)n1 [Compound 2, (S)-quinuclidin-3-yl 2-(2-(4-fluorophenyl)thiazol-4-yl)propan-2-ylcarbamate]
[1]; 26 weeks (n = 8)
  Urine GL-3 (mg per mmol urine creatinine), change from baseline: -0.25 mg/mmol
[1]; 26 weeks (n = 9)
  Plasma GL-1, change from baseline: -3.26 µg/mL
  Plasma GL-3, change from baseline: -3.62 µg/mL
  Plasma GM3, change from baseline: -10.77 µg/mL
  Plasma lyso-GL-3, change from baseline: -30.99 ng/mL
[1]; 52 weeks (n = 7)
  Plasma GL-1, change from baseline: -3.58 µg/mL
  Plasma GL-3, change from baseline: -5.06 µg/mL
  Plasma GM3, change from baseline: -8.84 µg/mL
  Plasma lyso-GL-3, change from baseline: -37.10 ng/mL
  Urine GL-3 (mg per mmol urine creatinine), change from baseline: -0.20 mg/mmol
[1]; 104 weeks (n = 7)
  Plasma GL-1, change from baseline: -3.70 µg/mL
  Plasma GL-3, change from baseline: -6.32 µg/mL
  Plasma GM3, change from baseline: -9.92 µg/mL
  Plasma lyso-GL-3, change from baseline: -39.84 ng/mL
  Urine GL-3 (mg per mmol urine creatinine), change from baseline: -0.18 mg/mmol
[1]; 156 weeks (n = 7)
  Plasma GL-1, change from baseline: -3.23 µg/mL
  Plasma GL-3, change from baseline: -6.97 µg/mL
  Plasma GM3, change from baseline: -8.12 µg/mL
  Plasma lyso-GL-3, change from baseline: -48.13 ng/mL
  Urine GL-3 (mg per mmol urine creatinine), change from baseline: -0.18 mg/mmol
[1]; after 156 weeks
  Plasma GL-3 levels: 1.90 µg/mL
[1]; at 104 weeks (p=0.0351) and 156 weeks (p=0.0081)
  Plasma GL-3 reduction compared to agalsidase beta: significantly greater
[1]; over the 156-week study
  Drop in mean plasma GL-1 levels: 69%
  Drop in mean plasma GL-3 levels: 77%
  Drop in mean plasma GM3 levels: 60%
  Drop in mean plasma lyso-GL3 levels: 52%
[2]; 52 weeks, SD=54.3
  Mean difference in time taken to complete Trail B minus Trail A: 66.2 s
[2]; Week 52
  Patients with a TMT-A reduction, excluding Patient 5: four of five
  Patients with a TMT-B reduction, excluding Patient 5: five of five
  Patients with a reduction in the (TMT B−TMT A) time: 5 of 6
  Patients with an improvement in Trail B minus Trial A, excluding Patient 5: four of five
  Patients with reduction in time taken to complete Trail A: Four of six
  Patients with reduction in time taken to complete Trail B: six of six
[3]
  Crossing of the blood-brain barrier: effectively cross the blood-brain barrier in all patients
  Time at which steady state concentration is reached in plasma and CSF: ≤ 4 Week
[3]; Day 1 (N = 6)
  Concentration in CSF 2-4 hours post dose (mean ± SD): <LLOQ
[3]; Week 4 (N = 5)
  Concentration in CSF 4 hours post dose (mean ± SD): 4.17 ± 0.83 ng/mL
[3]; Week 26 (N = 4)
  Concentration in CSF 4 hours post dose (mean ± SD): 4.71 ± 2.50 ng/mL
[3]; plasma, Day 1 (N = 6)
  tmax (median): 2.00 h
[3]; human, oral, plasma, Day 1 (N = 5), read-out: tmax (median)
  Tmax: 2 h
[3]; [5]
  AUC(0-t): 715 ± 225 ng·h/mL
  Cmax: 48.2 ± 19.2 ng/mL
[3]; [6]
  AUC(0-t): 729 ± 205 ng·h/mL
  Cmax: 49.1 ± 17.3 ng/mL
[4]; 52 weeks
  Patients showing improvements in ataxia: 5 of 6
[4]; Week 52
  Patients exhibiting an improvement in ataxia, excluding Patient 5: 4 out of 5
[4]; Week 52, SD=3.2
  Mean improvement in SARA score, excluding Patient 5: −0.9
